Assay results taken from the supplement of paper PMC12076712.
± gives the standard deviation of the averaged measurements.

Experiments:
Assay in all cases: pIC50, kinobeads binding competition
Settings in all cases: cell material: Jurkat lysate
[1] = target: T1, CDKL5 (UniProt O76039)
T1 sequence (whole entry): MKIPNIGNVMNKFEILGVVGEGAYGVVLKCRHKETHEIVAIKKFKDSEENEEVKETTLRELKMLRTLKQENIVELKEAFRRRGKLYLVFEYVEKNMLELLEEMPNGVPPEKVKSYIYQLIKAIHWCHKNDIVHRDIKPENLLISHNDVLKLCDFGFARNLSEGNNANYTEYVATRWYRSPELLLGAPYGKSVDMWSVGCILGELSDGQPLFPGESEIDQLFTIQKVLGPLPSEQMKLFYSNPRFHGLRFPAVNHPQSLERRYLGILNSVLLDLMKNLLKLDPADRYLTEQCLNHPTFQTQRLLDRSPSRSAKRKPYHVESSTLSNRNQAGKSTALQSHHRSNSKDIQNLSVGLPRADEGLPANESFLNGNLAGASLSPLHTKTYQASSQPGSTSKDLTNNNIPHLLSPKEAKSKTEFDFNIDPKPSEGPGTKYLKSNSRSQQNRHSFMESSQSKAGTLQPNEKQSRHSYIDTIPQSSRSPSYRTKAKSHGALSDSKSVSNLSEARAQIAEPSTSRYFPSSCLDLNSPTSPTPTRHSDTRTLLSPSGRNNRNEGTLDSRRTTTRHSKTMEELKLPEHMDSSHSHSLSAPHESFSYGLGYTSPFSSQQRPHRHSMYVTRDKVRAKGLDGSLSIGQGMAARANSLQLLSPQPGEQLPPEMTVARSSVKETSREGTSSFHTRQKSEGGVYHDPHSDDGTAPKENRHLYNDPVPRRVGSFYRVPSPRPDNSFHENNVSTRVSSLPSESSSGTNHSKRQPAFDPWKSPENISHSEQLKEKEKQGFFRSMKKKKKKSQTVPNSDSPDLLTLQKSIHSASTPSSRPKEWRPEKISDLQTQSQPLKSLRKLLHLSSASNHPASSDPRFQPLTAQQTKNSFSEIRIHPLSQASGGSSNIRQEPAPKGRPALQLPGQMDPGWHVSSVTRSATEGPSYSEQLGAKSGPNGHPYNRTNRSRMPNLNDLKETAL

[2] = target: BUB1 (UniProt O43683)
BUB1, sequence (O43683 whole entry, looked up): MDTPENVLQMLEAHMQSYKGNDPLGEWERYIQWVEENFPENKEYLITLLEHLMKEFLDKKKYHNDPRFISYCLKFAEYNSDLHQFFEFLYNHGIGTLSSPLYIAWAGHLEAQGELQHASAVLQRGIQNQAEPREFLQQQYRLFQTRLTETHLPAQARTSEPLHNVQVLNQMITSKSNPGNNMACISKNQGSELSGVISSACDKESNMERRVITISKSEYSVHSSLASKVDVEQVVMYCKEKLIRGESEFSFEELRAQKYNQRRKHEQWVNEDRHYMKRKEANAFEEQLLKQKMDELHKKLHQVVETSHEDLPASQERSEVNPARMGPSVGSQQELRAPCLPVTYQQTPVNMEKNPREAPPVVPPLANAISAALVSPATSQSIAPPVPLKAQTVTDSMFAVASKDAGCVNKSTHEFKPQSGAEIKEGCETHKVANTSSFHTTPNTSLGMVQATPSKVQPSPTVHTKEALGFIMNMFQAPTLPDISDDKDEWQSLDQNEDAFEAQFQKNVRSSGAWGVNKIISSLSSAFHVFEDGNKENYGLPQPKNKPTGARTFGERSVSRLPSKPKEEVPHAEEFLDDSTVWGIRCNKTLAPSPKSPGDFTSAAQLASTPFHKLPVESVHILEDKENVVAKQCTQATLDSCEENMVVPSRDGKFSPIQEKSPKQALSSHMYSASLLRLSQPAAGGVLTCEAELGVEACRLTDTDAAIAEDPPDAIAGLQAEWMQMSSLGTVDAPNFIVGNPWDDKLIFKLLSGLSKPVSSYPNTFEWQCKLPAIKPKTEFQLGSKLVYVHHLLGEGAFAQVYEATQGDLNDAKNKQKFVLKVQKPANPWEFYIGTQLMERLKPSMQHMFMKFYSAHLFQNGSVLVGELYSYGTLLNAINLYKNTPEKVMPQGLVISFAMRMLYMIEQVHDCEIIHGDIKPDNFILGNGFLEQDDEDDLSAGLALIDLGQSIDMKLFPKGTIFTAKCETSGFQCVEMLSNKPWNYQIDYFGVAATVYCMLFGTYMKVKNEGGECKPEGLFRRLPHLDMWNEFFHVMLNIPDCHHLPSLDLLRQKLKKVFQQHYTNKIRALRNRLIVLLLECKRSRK

[3] = target: T2, MERTK (UniProt Q12866)
T2 sequence (whole entry): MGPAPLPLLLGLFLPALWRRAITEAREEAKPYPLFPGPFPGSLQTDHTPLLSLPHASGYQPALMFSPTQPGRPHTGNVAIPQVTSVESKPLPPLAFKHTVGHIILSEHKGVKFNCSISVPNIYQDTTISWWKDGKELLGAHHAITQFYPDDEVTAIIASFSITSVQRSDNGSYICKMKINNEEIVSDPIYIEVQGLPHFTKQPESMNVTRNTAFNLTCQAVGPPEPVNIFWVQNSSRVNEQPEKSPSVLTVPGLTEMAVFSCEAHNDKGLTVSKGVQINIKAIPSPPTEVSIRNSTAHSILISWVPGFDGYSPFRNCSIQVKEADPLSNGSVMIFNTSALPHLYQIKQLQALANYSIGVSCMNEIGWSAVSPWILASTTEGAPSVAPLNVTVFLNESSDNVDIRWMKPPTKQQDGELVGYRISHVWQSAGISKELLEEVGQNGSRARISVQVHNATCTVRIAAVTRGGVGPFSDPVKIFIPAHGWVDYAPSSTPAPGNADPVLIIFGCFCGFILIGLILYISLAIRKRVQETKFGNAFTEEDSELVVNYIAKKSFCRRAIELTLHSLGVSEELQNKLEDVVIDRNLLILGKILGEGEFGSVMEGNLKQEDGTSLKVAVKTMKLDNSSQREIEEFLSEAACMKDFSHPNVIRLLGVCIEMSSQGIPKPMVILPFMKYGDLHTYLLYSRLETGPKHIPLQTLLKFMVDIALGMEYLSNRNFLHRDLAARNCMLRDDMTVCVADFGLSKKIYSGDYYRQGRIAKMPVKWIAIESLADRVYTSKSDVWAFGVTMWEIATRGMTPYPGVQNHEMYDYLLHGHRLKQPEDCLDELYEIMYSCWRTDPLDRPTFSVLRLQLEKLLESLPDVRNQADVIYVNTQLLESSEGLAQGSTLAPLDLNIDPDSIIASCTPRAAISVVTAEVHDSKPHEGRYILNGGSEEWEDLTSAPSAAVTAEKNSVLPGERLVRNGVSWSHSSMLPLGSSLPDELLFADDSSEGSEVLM

[4] = target: T3, UniProt O14920
T3 sequence (whole entry): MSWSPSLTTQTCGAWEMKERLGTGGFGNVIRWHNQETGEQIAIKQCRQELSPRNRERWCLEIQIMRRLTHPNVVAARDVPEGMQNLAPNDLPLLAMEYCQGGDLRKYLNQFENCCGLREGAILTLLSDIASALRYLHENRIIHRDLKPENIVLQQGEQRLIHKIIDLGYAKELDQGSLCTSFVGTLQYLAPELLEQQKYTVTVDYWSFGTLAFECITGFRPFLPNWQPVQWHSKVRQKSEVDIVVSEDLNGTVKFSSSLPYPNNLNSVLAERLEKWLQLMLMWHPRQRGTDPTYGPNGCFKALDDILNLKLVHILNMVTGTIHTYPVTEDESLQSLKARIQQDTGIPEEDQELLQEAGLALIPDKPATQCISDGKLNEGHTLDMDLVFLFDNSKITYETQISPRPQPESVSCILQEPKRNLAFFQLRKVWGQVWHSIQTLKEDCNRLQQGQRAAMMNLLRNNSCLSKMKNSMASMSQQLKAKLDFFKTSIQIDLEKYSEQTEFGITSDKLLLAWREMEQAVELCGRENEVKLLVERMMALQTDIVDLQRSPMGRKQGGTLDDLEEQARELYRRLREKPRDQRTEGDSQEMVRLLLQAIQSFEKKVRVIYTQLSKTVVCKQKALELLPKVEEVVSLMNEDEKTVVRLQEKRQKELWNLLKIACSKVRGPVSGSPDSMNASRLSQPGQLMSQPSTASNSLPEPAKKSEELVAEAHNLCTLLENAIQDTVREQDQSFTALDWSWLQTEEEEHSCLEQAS

`CCc1cnn2c(NCc3ccc[n+]([O-])c3)cc(N3CCCC[C@H]3CCO)nc12` [dinaciclib] gave a pIC50 [1] of 6.485 ± 0.035, a pIC50 [2] of under 4.52 and a pIC50 [3] of under 4.52. For the same molecule, the pIC50 [4] was under 4.52.
